Laboratory results reported in ChEMBL document CHEMBL3352057, “Novel fluorinated pyrrolo[1,2-a]pyrazine-2,6-dione derivatives: synthesis and anticonvulsant evaluation in animal models of epilepsy” (Bioorg Med Chem, 2014).
Activity calls are given as the source filed them. The calls are words filed in the database; no cut-off is given here.

Key:
[1] = tested on: Mus musculus; assay: Anticonvulsant activity in albino CF1 mouse assessed as protection against maximal electroshock-induced seizures at 100 mg/kg, ip measured after 0.5 hr; type: functional, organism-based; set-up: dose 100 mg/kg
[2] = tested on: Mus musculus; assay: Neurotoxicity in albino CF1 mouse at 100 mg/kg, ip measured after 0.25 hr; type: toxicity, organism-based; set-up: dose 100 mg/kg, route intraperitoneal; settings: in vivo
[3] = tested on: Mus musculus; assay: Neurotoxicity in albino CF1 mouse at 100 mg/kg, ip measured after 0.5 hr; type: toxicity, organism-based; set-up: dose 100 mg/kg, route intraperitoneal; settings: in vivo
[4] = tested on: Mus musculus; assay: Neurotoxicity in albino CF1 mouse at 100 mg/kg, ip measured after 1 hr; type: toxicity, organism-based; set-up: dose 100 mg/kg, route intraperitoneal; settings: in vivo
[5] = tested on: Mus musculus; assay: Anticonvulsant activity in albino CF1 mouse assessed as protection against 32 mA current-induced seizures at 100 mg/kg, ip measured after 0.5 hr; type: functional, organism-based; set-up: dose 100 mg/kg
[6] = tested on: Mus musculus; assay: Anticonvulsant activity in albino CF1 mouse assessed as protection against 32 mA current-induced seizures at 100 mg/kg, ip measured after 2 hrs; type: functional, organism-based; set-up: dose 100 mg/kg
[7] = tested on: Mus musculus; assay: Anticonvulsant activity in albino CF1 mouse assessed as protection against 32 mA current-induced seizures at 100 mg/kg, ip measured after 4 hrs; type: functional, organism-based; set-up: dose 100 mg/kg
[8] = tested on: Mus musculus; assay: Neurotoxicity in 32 mA current-induced seizure albino CF1 mouse model at 100 mg/kg, ip measured after 0.5 hr; type: toxicity, organism-based; set-up: dose 100 mg/kg, route intraperitoneal; settings: in vivo
[9] = tested on: Mus musculus; assay: Neurotoxicity in 32 mA current-induced seizure albino CF1 mouse model at 100 mg/kg, ip measured after 4 hrs; type: toxicity, organism-based; set-up: dose 100 mg/kg, route intraperitoneal; settings: in vivo
[10] = tested on: Mus musculus; assay: Anticonvulsant activity in albino CF1 mouse assessed as protection against 44 mA current-induced seizures at 100 mg/kg, ip measured after 0.5 hr; type: functional, organism-based; set-up: dose 100 mg/kg
[11] = tested on: Mus musculus; assay: Anticonvulsant activity in albino CF1 mouse assessed as protection against 44 mA current-induced seizures at 100 mg/kg, ip measured after 1 hr; type: functional, organism-based; set-up: dose 100 mg/kg
[12] = tested on: Mus musculus; assay: Neurotoxicity in 44 mA current-induced seizure albino CF1 mouse model at 100 mg/kg, ip measured after 0.25 hr; type: toxicity, organism-based; set-up: dose 100 mg/kg, route intraperitoneal; settings: in vivo
[13] = tested on: Mus musculus; assay: Neurotoxicity in 44 mA current-induced seizure albino CF1 mouse model at 100 mg/kg, ip measured after 0.5 hr; type: toxicity, organism-based; set-up: dose 100 mg/kg, route intraperitoneal; settings: in vivo
[14] = tested on: Mus musculus; assay: Neurotoxicity in 44 mA current-induced seizure albino CF1 mouse model at 100 mg/kg, ip measured after 1 hr; type: toxicity, organism-based; set-up: dose 100 mg/kg, route intraperitoneal; settings: in vivo
[15] = tested on: Mus musculus; assay: Neurotoxicity in 44 mA current-induced seizure albino CF1 mouse model at 100 mg/kg, ip measured after 2 hrs; type: toxicity, organism-based; set-up: dose 100 mg/kg, route intraperitoneal; settings: in vivo
[16] = tested on: Rattus norvegicus; assay: Anticonvulsant activity in Sprague-Dawley rat assessed as protection against maximal electroshock-induced seizures at 30 mg/kg, po measured after 0.5 hr; type: functional, organism-based; set-up: dose 30 mg/kg
[17] = tested on: Rattus norvegicus; assay: Anticonvulsant activity in Sprague-Dawley rat assessed as protection against maximal electroshock-induced seizures at 30 mg/kg, po measured after 1 hr; type: functional, organism-based; set-up: dose 30 mg/kg
[18] = tested on: Rattus norvegicus; assay: Anticonvulsant activity in Sprague-Dawley rat assessed as protection against maximal electroshock-induced seizures at 30 mg/kg, po measured after 2 hrs; type: functional, organism-based; set-up: dose 30 mg/kg
[19] = tested on: Rattus norvegicus; assay: Anticonvulsant activity in Sprague-Dawley rat assessed as protection against maximal electroshock-induced seizures at 30 mg/kg, po measured after 4 hrs; type: functional, organism-based; set-up: dose 30 mg/kg
[20] = tested on: Rattus norvegicus; assay: Neurotoxicity in MES Sprague-Dawley rat model at 30 mg/kg, po measured after 2 hrs; type: toxicity, organism-based; set-up: dose 30 mg/kg, route oral; settings: in vivo
[21] = tested on: Rattus norvegicus; assay: Anticonvulsant activity in Sprague-Dawley rat assessed as protection against maximal electroshock-induced seizures at 30 mg/kg, ip measured after 0.5 hr; type: functional, organism-based; set-up: dose 30 mg/kg
[22] = tested on: Rattus norvegicus; assay: Anticonvulsant activity in Sprague-Dawley rat assessed as protection against maximal electroshock-induced seizures at 30 mg/kg, ip measured after 4 hrs; type: functional, organism-based; set-up: dose 30 mg/kg
[23] = tested on: Rattus norvegicus; assay: Neurotoxicity in MES Sprague-Dawley rat model at 30 mg/kg, ip measured after 0.25 hr; type: toxicity, organism-based; set-up: dose 30 mg/kg, route intraperitoneal; settings: in vivo
[24] = tested on: Rattus norvegicus; assay: Neurotoxicity in MES Sprague-Dawley rat model at 30 mg/kg, ip measured after 0.5 hr; type: toxicity, organism-based; set-up: dose 30 mg/kg, route intraperitoneal; settings: in vivo
[25] = tested on: Rattus norvegicus; assay: Neurotoxicity in MES Sprague-Dawley rat model at 30 mg/kg, ip measured after 1 hr; type: toxicity, organism-based; set-up: dose 30 mg/kg, route intraperitoneal; settings: in vivo
[26] = tested on: Rattus norvegicus; assay: Neurotoxicity in MES Sprague-Dawley rat model at 30 mg/kg, ip measured after 4 hrs; type: toxicity, organism-based; set-up: dose 30 mg/kg, route intraperitoneal; settings: in vivo
[27] = tested on: Mus musculus; assay: Anticonvulsant activity in ip dosed albino CF1 mouse assessed as protection against maximal electroshock-induced seizures; type: functional
[28] = tested on: Mus musculus; assay: Anticonvulsant activity in ip dosed albino CF1 mouse assessed as protection against subcutaneous metrazol-induced seizures; type: functional
[29] = Protective index, ratio of TD50 for neurotoxicity in ip dosed albino CF1 mouse to ED50 for anticonvulsant activity in ip dosed MES albino CF1 mouse model; type: toxicity, organism-based; settings: in vivo, read-out: Ratio TD50/ED50
[30] = tested on: Mus musculus; assay: Anticonvulsant activity in ip dosed albino CF1 mouse assessed as protection against maximal electroshock-induced seizures measured as time to peak effect; type: functional
[31] = tested on: Rattus norvegicus; assay: Anticonvulsant activity in ip dosed Sprague-Dawley rat assessed as protection against subcutaneous metrazol-induced seizures; type: functional
[32] = Protective index, ratio of TD50 for neurotoxicity in ip dosed Sprague-Dawley rat to ED50 for anticonvulsant activity in ip dosed MES Sprague-Dawley rat model; type: toxicity, organism-based; settings: in vivo, read-out: Ratio TD50/ED50
[33] = tested on: Rattus norvegicus; assay: Anticonvulsant activity in ip dosed Sprague-Dawley rat assessed as protection against maximal electroshock-induced seizures measured as time to peak effect; type: functional
[34] = tested on: Mus musculus; assay: Anticonvulsant activity in ip dosed corneal kindled albino CF1 mouse seizure model; type: functional
[35] = tested on: Mus musculus; assay: Anticonvulsant activity in ip dosed corneal kindled albino CF1 mouse seizure model assessed as time to peak effect; type: functional
[36] = tested on: Rattus norvegicus; assay: Anticonvulsant activity in ip dosed hippocampal kindled albino Sprague-Dawley rat seizure model assessed as time of rest; type: functional, Hippocampus
[37] = tested on: Mus musculus; assay: Anticonvulsant activity in ip dosed albino CF1 mouse assessed as protection against iv infusion metrazol-induced seizures; type: functional, organism-based
[38] = tested on: Mus musculus; assay: Anticonvulsant activity in albino CF1 mouse assessed as protection against iv infusion metrazol-induced seizures measured as weight at 24 mg/kg, ip (reference value: 26.75 grams); type: functional
[39] = tested on: Mus musculus; assay: Anticonvulsant activity in albino CF1 mouse assessed as protection against iv infusion metrazol-induced seizures measured as weight at 79 mg/kg, ip (reference value: 26.75 grams); type: functional
[40] = tested on: Mus musculus; assay: Anticonvulsant activity in albino CF1 mouse assessed as protection against iv infusion metrazol-induced seizures measured as time to twitch at 24 mg/kg, ip (reference value: 26.6 seconds); type: functional
[41] = tested on: Mus musculus; assay: Anticonvulsant activity in albino CF1 mouse assessed as protection against iv infusion metrazol-induced seizures measured as time to twitch at 79 mg/kg, ip (reference value: 26.6 seconds); type: functional
[42] = tested on: Mus musculus; assay: Anticonvulsant activity in albino CF1 mouse assessed as protection against iv infusion metrazol-induced seizures measured as twitch at 24 mg/kg, ip (reference value: 28.2 mg/kg); type: functional
[43] = tested on: Mus musculus; assay: Anticonvulsant activity in albino CF1 mouse assessed as protection against iv infusion metrazol-induced seizures measured as twitch at 79 mg/kg, ip (reference value: 28.2 mg/kg); type: functional
[44] = tested on: Mus musculus; assay: Anticonvulsant activity in albino CF1 mouse assessed as protection against iv infusion metrazol-induced seizures measured as time to clonus at 24 mg/kg, ip (reference value: 29.4 seconds); type: functional
[45] = tested on: Mus musculus; assay: Anticonvulsant activity in albino CF1 mouse assessed as protection against iv infusion metrazol-induced seizures measured as clonus at 79 mg/kg, ip (reference value: 31.1 mg/kg); type: functional

O=C1NC(=O)[C@@H]2CCCN2[C@H]1c1cccc(OC(F)(F)F)c1
Activity [1]: Active
Activity [2]: Toxic
Activity [3]: Toxic
Activity [4]: Non-toxic
Activity [5]: Active
Activity [6]: inactive
Activity [7]: inactive
Activity [8]: Non-toxic
Activity [9]: Non-toxic
Activity [10]: Active
Activity [11]: Active
Activity [12]: Toxic
Activity [13]: Toxic
Activity [14]: Non-toxic
Activity [15]: Non-toxic
Activity [16]: inactive
Activity [17]: inactive
Activity [18]: inactive
Activity [19]: inactive
Activity [20]: Non-toxic
Activity [21]: Active
Activity [22]: inactive
Activity [23]: Non-toxic
Activity [24]: Non-toxic
Activity [25]: Non-toxic
Activity [26]: Non-toxic
ED50 [27]: 76 µmol/kg
ED50 [28]: 200 µmol/kg
selectivity ratio [29]: 3.2
Time [30]: 0.25 h
ED50 [31]: 41 µmol/kg
selectivity ratio [32]: 2.8
Time [33]: 0.25 h
ED50 [34]: 171 µmol/kg
Time [35]: 0.25 h
Time [36]: 0.25 h
Activity [37]: Dose-dependent effect
Activity [38]: 26.8 g
Activity [39]: 27.6 g
Time [40]: 33.3 s
Time [41]: 63.1 s
Activity [42]: 35.2 mg/kg
Activity [43]: 64.8 mg/kg
Time [44]: 39.4 s
Activity [45]: 97.2 mg/kg
